{"source": "paper PMC4855186", "about": "“Characterization of primary human hepatocyte spheroids as a model system for drug-induced liver injury, liver function and disease” (Scientific Reports, 2016)", "key": {"PHH spheroids [1]": {"tested_on": "PHH spheroids", "test": "Chronic toxicity assay in PHH spheroids, viability by cellular ATP content", "type": "cell-based, human", "conditions": "for Fold changes in EC50 vs. 48 h (8 d): 8 d vs 48 h exposure; for Fold changes in EC50 vs. 48 h (28 d): 28 d vs 48 h exposure; for EC50: Homo sapiens", "method": "Cryopreserved PHH (obtained from […], France or Bioreclamation IVT, USA) or fresh hepatocytes (obtained from patients subject to liver resections at Huddinge University Hospital, Stockholm, Sweden) were used for formation of spheroid cultures. Hepatocytes obtained from patient livers were isolated as previously described. Use of the liver specimens for this purpose was approved by the Ethics Committee at Karolinska Institutet ([…] Stockholm) and studies were carried out in accordance with the approved guidelines. Written informed consent was obtained from all donors of liver material. Cells were seeded into ultra-low attachment 96-well plates (Corning) at 1,500 viable cells per well and subsequently centrifuged at 100 × g for 2 min. Cells were seeded in 100 μl Williams E medium supplemented with 2 mM L-glutamine, 100 units/ml penicillin, 100 μg/ml streptomycin, 10 μg/ml insulin, 5.5 μg/ml transferrin, 6.7 ng/ml sodium selenite, 100 nM dexamethasone, and 10% FBS. Spontaneous self-aggregation of the hepatocytes initiated spheroid formation. From day 4 or 5 after seeding, when the spheroids were sufficiently compact, 50% of the medium was exchanged daily for serum-free medium. Spheroids were maintained in serum-free medium until day 35, with a medium change every 48-72 h. Cell viability was assessed by determining the ATP content of single PHH spheroids with the CellTiter-Glo Luminescent Cell Viability Assay (Promega, Sweden). At the same time-points, cell culture medium was collected and albumin concentrations were determined by ELISA (Bethyl laboratories, USA). Absolute ATP and albumin values were normalized to spheroid volumes as determined from bright field imaging to compensate for compaction. […] Treatment was started on day 8 with repeated dosing of PHH spheroids every second day in serum-free medium as indicated. Cell viability was assessed by determining the ATP content as indicated above. EC50 values were determined using GraphPad Prism (GraphPad Software, USA)."}, "PHH spheroids [2]": {"tested_on": "PHH spheroids", "test": "Toxicity in non-infected and adenovirus (AdGL)-infected PHH spheroids", "type": "cell-based, human", "conditions": "for EC50: Homo sapiens", "method": "Cell viability was assessed by determining the ATP content of single PHH spheroids with the CellTiter-Glo Luminescent Cell Viability Assay (Promega, Sweden). At the same time-points, cell culture medium was collected and albumin concentrations were determined by ELISA (Bethyl laboratories, USA). Absolute ATP and albumin values were normalized to spheroid volumes as determined from bright field imaging to compensate for compaction.\nA recombinant adenovirus (AdGL) expressing green fluorescent protein (GFP; described in ref. [44]) was added during PHH spheroid seeding at a multiplicity of infection (MOI) of 0.1. PHH were seeded into GravityPLUS hanging-drop 96-well plates (InSphero, Zurich, Switzerland) at 1,500 viable cells per well. Spheroids were transferred to Gravity TRAP 96-well plates (InSphero) on day 7. Culture conditions were identical to the conditions for spheroids formed in ultra-low attachment plates."}, "PHH spheroids [3]": {"tested_on": "PHH spheroids", "test": "Neutral lipid staining (steatosis) in PHH spheroids", "type": "cell-based, human", "conditions": "10 μM co-exposure with CsA 30 μM, 48 h; n = 3, p = 0.009", "method": "PHH spheroids were treated with 30 μM cyclosporine A (CsA) and/or 10 μM α-tocopherol (α-TOH) as indicated. After 48 h, spheroids were fixed and incubated with HCS LipidTOX Green neutral lipid stain (1:500). CellProfiler software was used to quantify neutral lipid staining."}, "[4]": {"tested_on": "Kupffer cells in co-culture spheroids", "test": "LPS-induced IL-6 secretion in PHH/NPC co-culture spheroids (ELISA)", "type": "cell-based, human", "conditions": "10 μg/ml, 48 h; co-culture spheroids compared to PHH spheroids", "method": "When used, co-cultures of cryopreserved PHH and non-parenchymal cells (NPCs; Bioreclamation IVT) originating from different donors were thawed and seeded at a ratio of 2:1 (PHH:NPC) and 2,000 viable cells per well into ultra-low attachment plates. Functionality of Kupffer cells was assessed by measuring lipopolysaccharide (LPS)-induced interleukin 6 (IL-6) secretion. LPS was added at a concentration of 10 μg/ml and supernatants were collected after 48 h. IL-6 levels were determined via ELISA (Thermo Scientific)."}, "[5]": {"tested_on": "bile salt export pump (BSEP) mRNA", "test": "BSEP mRNA expression in PHH spheroids (RT-qPCR)", "type": "cell-based, human", "conditions": "5 μM", "method": "(§1) PHH spheroids were dosed with 5 μM chlorpromazine every second day for 1 week. For the final exposure, 20 μM tauro-nor-THCA-25-DBD (Genomembrane Company Ltd., Yokohoma, Japan) was added. Bile acid accumulation was quantified and normalized to spheroid size using CellProfiler software.\nTotal RNA was isolated using Qiazol lysis reagent (Qiagen). RNA was reverse-transcribed into cDNA using SuperScript III reverse transcriptase and RT-qPCR analysis was performed using a TaqMan Universal mix on a 7500 Fast Real-Time PCR system."}, "PHH spheroids [6]": {"tested_on": "PHH spheroids", "test": "Bile acid accumulation (tauro-nor-THCA-25-DBD) in PHH spheroids", "type": "cell-based, human", "conditions": "5 μM every second day for 1 week; n = 3, p = 0.03", "method": "as §1"}, "patients": {"tested_on": "patients", "set-up": "method as in PMID 7565947", "conditions": "clinical trials, cited from earlier work"}, "chimeric TK-NOG mice": {"tested_on": "chimeric TK-NOG mice", "set-up": "method as in PMID 24736310", "conditions": "mice carrying human hepatocytes; cited from earlier work"}, "[7]": {"conditions": "human plasma Cmax; ref 21 (amiodarone), 22 (bosentan), 23 (diclofenac), 24 (fialuridine), 25 (tolcapone); read-out: In vivo Cmax; cited from earlier work"}, "[8]": {"conditions": "672 h, PHH spheroids, viability by ATP content, dosing every second day, 28 days, read-out: EC50 (μM) 28d"}, "[9]": {"conditions": "PHH spheroids, viability by ATP content, 48 h exposure, read-out: EC50 (μM) 48h"}, "[10]": {"conditions": "PHH spheroids, viability by ATP content, dosing every second day, 7d (legend: 8 days), read-out: EC50 (μM) 7d"}}, "data": [{"compound": "Cc1ccc(C(=O)c2cc(O)c(O)c([N+](=O)[O-])c2)cc1", "note": "[Tolcapone, tolcapone]", "values": [{"measurement": "Fold changes in EC50 vs. 48 h (8 d)", "setting": "PHH spheroids [1]", "result": 2, "unit": "fold"}, {"measurement": "Fold changes in EC50 vs. 48 h (28 d)", "setting": "PHH spheroids [1]", "result": 3.4, "unit": "fold"}, {"measurement": "EC50", "setting": "PHH spheroids [1]; [8]", "result": 5.6, "unit": "µM"}, {"measurement": "EC50", "setting": "PHH spheroids [1]; [9]", "result": 18.8, "unit": "µM"}, {"measurement": "EC50", "setting": "PHH spheroids [1]; [10]", "result": 9.4, "unit": "µM"}, {"measurement": "EC50 values related to reported in vivo Cmax", "setting": "PHH spheroids [1]; already after acute dosing", "result": "lower than the reported in vivo Cmax values"}]}, {"compound": "C[C@H]1COc2c(N3CCN(C)CC3)c(F)cc3c(=O)c(C(=O)O)cn1c23", "note": "[levofloxacin]", "values": [{"measurement": "toxicity observed", "setting": "PHH spheroids [2]; infected spheroids", "result": "no toxicity"}, {"measurement": "toxicity observed", "setting": "PHH spheroids [2]; non-infected spheroids", "result": "no toxicity"}]}, {"compound": "N[C@@H]1[C@H]2CN(c3nc4c(cc3F)c(=O)c(C(=O)O)cn4-c3ccc(F)cc3F)C[C@@H]12", "note": "[Trovafloxacin, trovafloxacin]", "values": [{"measurement": "EC50", "setting": "PHH spheroids [2]; non-infected PHH spheroids", "result": 96.1, "unit": "µM"}, {"measurement": "EC50", "setting": "PHH spheroids [2]; virus-infected PHH spheroids (AdGL, MOI 0.1)", "result": 32.9, "unit": "µM"}, {"measurement": "enhancement of toxicity by viral infection", "setting": "PHH spheroids [2]; infected vs non-infected spheroids, p < 0.001", "result": 2.9, "unit": "fold"}]}, {"compound": "Cc1c(C)c2c(c(C)c1O)CC[C@@](C)(CCC[C@H](C)CCC[C@H](C)CCCC(C)C)O2", "note": "[α-tocopherol]", "values": [{"measurement": "protection against cyclosporine A-induced neutral lipid accumulation", "setting": "PHH spheroids [3]", "result": "fully protected"}]}, {"compound": "lipopolysaccharide [LPS]", "values": [{"measurement": "IL-6 secretion", "setting": "[4]", "result": "substantial increase"}]}, {"compound": "O=C(O)Cc1ccccc1Nc1c(Cl)cccc1Cl", "note": "[Diclofenac, diclofenac]", "values": [{"measurement": "EC50", "setting": "PHH spheroids [1]; [8]", "result": 45.9, "unit": "µM"}, {"measurement": "EC50", "setting": "PHH spheroids [1]; [9]", "result": 191, "unit": "µM"}, {"measurement": "EC50", "setting": "PHH spheroids [1]; [10]", "result": 56.8, "unit": "µM"}]}, {"compound": "CN(C)CCCN1c2ccccc2Sc2ccc(Cl)cc21", "note": "[chlorpromazine]", "values": [{"measurement": "BSEP mRNA expression", "setting": "[5]", "result": "down-regulation"}, {"measurement": "accumulation of fluorescently-labelled bile acid derivative tauro-nor-THCA-25-DBD", "setting": "PHH spheroids [6]", "result": "significant accumulation"}]}, {"compound": "COc1ccccc1Oc1c(NS(=O)(=O)c2ccc(C(C)(C)C)cc2)nc(-c2ncccn2)nc1OCCO", "note": "[Bosentan, bosentan]", "values": [{"measurement": "Fold changes in EC50 vs. 48 h (8 d)", "setting": "PHH spheroids [1]", "result": 3.6, "unit": "fold"}, {"measurement": "Fold changes in EC50 vs. 48 h (28 d)", "setting": "PHH spheroids [1]", "result": 6.0, "unit": "fold"}, {"measurement": "EC50", "setting": "PHH spheroids [1]; [8]", "result": 41.8, "unit": "µM"}, {"measurement": "EC50", "setting": "PHH spheroids [1]; [9]", "result": "> 250", "unit": "µM"}, {"measurement": "EC50", "setting": "PHH spheroids [1]; [10]", "result": 69.5, "unit": "µM"}]}, {"compound": "O=c1[nH]c(=O)n([C@@H]2O[C@H](CO)[C@@H](O)[C@@H]2F)cc1I", "note": "[Fialuridine, fialuridine]", "values": [{"measurement": "patients who died", "setting": "patients; of those with severe hepatotoxicity", "result": "five"}, {"measurement": "patients who developed severe hepatotoxicity", "setting": "patients; several weeks after beginning treatment", "result": "7/15"}, {"measurement": "hepatotoxicity", "setting": "chimeric TK-NOG mice", "result": "induced hepatotoxicity"}, {"measurement": "Fold changes in EC50 vs. 48 h (8 d)", "setting": "PHH spheroids [1]", "result": 142.9, "unit": "fold"}, {"measurement": "Fold changes in EC50 vs. 48 h (28 d)", "setting": "PHH spheroids [1]", "result": 1000, "unit": "fold"}, {"measurement": "EC50", "setting": "PHH spheroids [1]; 672 h, PHH spheroids, repeated dosing, 4 weeks, read-out: EC50 after 4 weeks", "result": 0.1, "unit": "µM"}, {"measurement": "EC50", "setting": "PHH spheroids [1]; [9]", "result": "> 100", "unit": "µM"}, {"measurement": "EC50", "setting": "PHH spheroids [1]; [10]", "result": 0.7, "unit": "µM"}, {"measurement": "toxicity observed after 48 h", "setting": "PHH spheroids [1]; PHH spheroids, 48 h exposure", "result": "no toxicity"}, {"measurement": "Cmax", "setting": "[7]", "result": 1000, "unit": "nM"}]}]}
